Laboratory results taken from patent publication US7429579B2, “Tetrahydrobenzazepine derivatives useful as modulators of dopamine D3 receptors (antipsychotic agents)” (SmithKline Beecham, PLC, priority 2000, dated 2008).

biological target: T1, dopamine D3 receptor (Homo sapiens, UniProt P35462); test: Binding experiments on cloned dopamine receptors: displacement of [125I]-Iodosulpride; conditions: cloned human D3 receptor expressed in CHO cells, [125I]-Iodosulpride displacement; pKi accurate to about ±0.2-0.3
T1 construct: expressed in transfected cells; host or cells: CHO cells (crude cell membranes)
Experimental: Binding Experiments on Cloned Dopamine (e.g. D2, D3 and D4) Receptors
Cultures were grown as monolayers or in suspension in standard cell culture media. Cells were recovered by scraping (from monolayers) or by centrifugation (from suspension cultures), and were washed two or three times by suspension in phosphate buffered saline followed by collection by centrifugation. Cell pellets were stored frozen at −80° C. Crude cell membranes were prepared by homogenisation followed by high-speed centrifugation, and characterisation of cloned receptors achieved by radioligand binding.
Preparation of Cho Cell Membranes: Cell Pellets were Gently Thawed at Room temperature, and resuspended in about 20 volumes of ice-cold Extraction buffer; 5 mM EDTA, 50 mM Trizma pre-set crystals (pH7.4@37° C.), 1 mM MgCl2, 5 mM KCl and 120 mM NaCl. The suspension was homogenised using an Ultra-Turrax at full speed for 15 seconds. The homogenate was centrifuged at 18,000 r.p.m for 15 min at 4° C. in a Sorvall RC5C centrifuge. Supernatant was discarded, and homogenate re-suspended in extraction buffer then centrifugation was repeated. The final pellet was resuspended in 50 mM Trizma pre-set crystals (pH 7.4 @ 37° C.) and stored in 1 ml aliquot tubes at −80° C. (D2=3.0E+08 cells, D3=7.0E+07 cells and D4=1.0E+08 cells).
The total volume is 0.2 ml and incubated in a water bath at 37° C. for 40 minutes. Following incubation, samples were filtered onto GF/B Unifilters using a Can berra Packard Filtermate, and washed four times with ice-cold 50 mM Trizma pre-set crystals (pH 7.4 @ 37° C.). The radioactivity on the filters was measured using a Canberra Packard Topcount Scintillation counter. […] For competition curves, 10 serial log concentrations of competing cold drug were used (Dilution range: 10 μM-10 pM). Competition curves were analysed using Inflexion, an iterative curve fitting programme in Excel. Results were expressed as pKi values where pKi=−log 10 [Ki].

T1 sequence (P35462 whole entry): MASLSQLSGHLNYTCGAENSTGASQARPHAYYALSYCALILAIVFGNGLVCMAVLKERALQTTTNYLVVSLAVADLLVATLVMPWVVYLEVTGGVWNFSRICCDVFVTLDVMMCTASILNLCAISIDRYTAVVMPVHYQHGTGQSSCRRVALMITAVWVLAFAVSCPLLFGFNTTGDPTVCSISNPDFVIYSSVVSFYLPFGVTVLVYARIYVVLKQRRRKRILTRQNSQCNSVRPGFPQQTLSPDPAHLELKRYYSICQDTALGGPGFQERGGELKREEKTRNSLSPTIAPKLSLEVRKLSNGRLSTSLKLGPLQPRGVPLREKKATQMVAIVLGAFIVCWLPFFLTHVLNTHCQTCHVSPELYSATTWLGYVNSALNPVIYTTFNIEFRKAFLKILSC

Ki [nM] | Structure (SMILES)
0.316 to 10 | Cn1c(SCCCN2CCc3ccc(S(=O)(=O)N4CCOCC4)cc3CC2)nnc1-c1ccc2ncccc2c1 [Example 51, 3-(3-{[4-methyl-5-(6-quinolinyl)-4H-1,2,4-triazol-3-yl]thio}propyl)-7-(4-morpholinylsulfonyl)-2,3,4,5-tetrahydro-1H-3-benzazepine]
0.316 to 10 | Cc1cc(-c2ccc3c(c2)CCN(CCCCSc2nnc(-c4ccc5ncccc5c4)n2C)CC3)no1 [Example 176, 7-(5-Methyl-3-isoxazolyl)-3-(4-{[4-methyl-5-(6-quinolinyl)-4H-1,2,4-triazol-3-yl]thio}butyl)-2,3,4,5-tetrahydro-1H-3-benzazepine]
0.316 to 10 | Cc1cc(-c2ccc3c(c2)CCN(CCCSc2nnc(-c4ccc(F)c5ncccc45)n2C)CC3)no1 [Example 135, 3-(3-{[5-(8-fluoro-5-quinolinyl)-4-methyl-4H-1,2,4-triazol-3-yl]thio}propyl)-7-(5-methyl-3-isoxazolyl)-2,3,4,5-tetrahydro-1H-3-benzazepine]
0.316 to 10 | CCS(=O)(=O)c1ccc2c(c1)CCN(CCCSc1nnc(-c3cccc4ccoc34)n1C)CC2 [Example 100, 3-(3-{[5-(1-benzofuran-7-yl)-4-methyl-4H-1,2,4-triazol-3-yl]thio}propyl)-7-(ethylsulfonyl)-2,3,4,5-tetrahydro-1H-3-benzazepine]
0.316 to 10 | Cn1c(SCCCN2CCc3ccc(S(=O)(=O)c4ccccc4)cc3CC2)nnc1-c1ccc(F)cc1F [Example 67, 3-(3-{[5-(2,4-difluorophenyl)-4-methyl-4H-1,2,4-triazol-3-yl]thio}propyl)-7-(phenylsulfonyl)-2,3,4,5-tetrahydro-1H-3-benzazepine]
0.316 to 10 | CS(=O)(=O)Oc1ccc2c(c1)CCN(CCCSc1nc(-c3ccccc3)c(-c3ccccc3)[nH]1)CC2 [Example 22, 3-{3-[(4,5-diphenyl-1H-imidazol-2-yl)thio]propyl}-2,3,4,5-tetrahydro-1H-3-benzazepin-7-yl methanesulfonate]
